Data set [1] addresses T1, Beta-secretase 1 (Homo sapiens, UniProt P56817). In words: Inhibition of BACE1 by FRET assay.
The next data set has as its target T2, Beta-secretase 2 (Homo sapiens, UniProt Q9Y5Z0).
T2 sequence (Q9Y5Z0 whole entry): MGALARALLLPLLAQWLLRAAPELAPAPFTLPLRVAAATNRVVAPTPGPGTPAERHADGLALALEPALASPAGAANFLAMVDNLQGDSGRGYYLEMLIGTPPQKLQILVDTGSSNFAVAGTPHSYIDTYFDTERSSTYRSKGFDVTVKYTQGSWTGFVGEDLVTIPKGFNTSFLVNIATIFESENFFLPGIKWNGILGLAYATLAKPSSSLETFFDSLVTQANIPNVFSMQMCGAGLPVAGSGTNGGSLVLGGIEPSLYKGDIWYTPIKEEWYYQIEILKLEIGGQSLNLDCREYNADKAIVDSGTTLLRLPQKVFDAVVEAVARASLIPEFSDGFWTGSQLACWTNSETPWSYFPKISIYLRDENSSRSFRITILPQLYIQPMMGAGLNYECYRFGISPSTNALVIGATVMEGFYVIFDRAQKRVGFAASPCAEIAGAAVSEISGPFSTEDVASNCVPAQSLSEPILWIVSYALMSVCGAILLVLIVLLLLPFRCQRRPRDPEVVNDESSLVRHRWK
Description: Inhibition of BACE2 by FRET assay.

The target of data set [2] is T3, Cathepsin D (Homo sapiens, UniProt P07339). Description: Inhibition of cathepsin D at 100 uM by FRET assay.
T3 sequence (P07339 65-162 limits assumed): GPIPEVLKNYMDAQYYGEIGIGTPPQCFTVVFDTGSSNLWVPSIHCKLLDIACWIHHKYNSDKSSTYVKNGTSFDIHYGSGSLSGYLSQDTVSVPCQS
T3 sequence (P07339 169-412 limits assumed): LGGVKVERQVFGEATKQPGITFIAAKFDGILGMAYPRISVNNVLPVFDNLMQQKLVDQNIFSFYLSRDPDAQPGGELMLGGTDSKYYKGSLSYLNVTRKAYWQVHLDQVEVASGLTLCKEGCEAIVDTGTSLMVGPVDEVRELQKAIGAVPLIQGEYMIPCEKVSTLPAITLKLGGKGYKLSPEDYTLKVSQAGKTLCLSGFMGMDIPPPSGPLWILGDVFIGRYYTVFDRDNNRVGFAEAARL
Data set [3] has as its target T1, Beta-secretase 1. In words: Inhibition of BACE1 expressed in CHO cells expressing wild type human APP assessed as inhibition of amyloid beta-40 or 42 production by ELISA assay. The class given is cell-based.
In data set [4] the target is T1, Beta-secretase 1. Description: Inhibition of BACE1 at 2.5 uM by FRET assay.
Data set [5] in a line: Ratio of AUC in brain to plasma. The class given is ADME, cell-free. The settings on record: brain and plasma; read-out: Ratio AUC.
Data set [6] addresses T3, Cathepsin D. In words: Inhibition of cathepsin D by FRET assay.

pEC50, pIC50: −log10 of the molar value. Some results are limits rather than exact numbers.

T1 sequence (P56817 whole entry): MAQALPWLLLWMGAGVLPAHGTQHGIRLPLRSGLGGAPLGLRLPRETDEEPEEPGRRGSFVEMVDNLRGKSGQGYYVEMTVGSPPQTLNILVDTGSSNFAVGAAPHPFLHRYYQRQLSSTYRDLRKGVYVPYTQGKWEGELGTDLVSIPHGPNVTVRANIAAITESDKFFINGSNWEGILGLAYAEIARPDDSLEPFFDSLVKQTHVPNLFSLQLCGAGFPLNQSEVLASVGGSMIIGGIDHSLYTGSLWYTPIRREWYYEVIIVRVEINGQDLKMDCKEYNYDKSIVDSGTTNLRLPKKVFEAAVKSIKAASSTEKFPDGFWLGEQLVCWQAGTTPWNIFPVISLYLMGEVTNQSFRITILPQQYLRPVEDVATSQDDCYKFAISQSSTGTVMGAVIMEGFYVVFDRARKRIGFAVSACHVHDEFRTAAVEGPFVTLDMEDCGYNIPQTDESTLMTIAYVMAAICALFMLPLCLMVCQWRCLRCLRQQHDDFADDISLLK

Consider `CCn1cc([C@@]2(c3cccc(-c4cccnc4F)c3)N=C(N)N(C)C2=O)cn1`, for which the pIC50 is 5.71 at Beta-secretase 1 [1] and 5.13 against Beta-secretase 2. This compound also registered an inhibition against Cathepsin D [2] of 27%. Besides, on Beta-secretase 1 [3], the pEC50 is less than 5.60.

Regarding `CCC(=O)c1cc([C@@]2(c3cccc(-c4cccnc4F)c3)N=C(N)N(C)C2=O)cs1`, the inhibition on Beta-secretase 1 [4] worked out at 47%. Also, in data set [5], the Kp amounted to 0.1. Besides, the figures for the pIC50 against Beta-secretase 2 and at Cathepsin D [6] were 5.26 and 4.11, respectively. Further, the pEC50 on Beta-secretase 1 [3] was 5.54.

Regarding `CN1C(=O)C(c2ccsc2)(c2cccc(-c3cnccn3)c2)N=C1N` (racemic), the Kp in data set [5] is 0.1. Moreover, the pIC50 is 7.05 at Beta-secretase 1 [1], 6.36 on Beta-secretase 2 and 4.48 on Cathepsin D [6]. Further, the pEC50 on Beta-secretase 1 [3] was 6.35.

For the compound `CN1C(=O)C(c2ccsc2)(c2cccc(-c3cccnc3)c2)N=C1N` (racemic), the Kp in data set [5] stood at 0.1. In addition, the pIC50 at Beta-secretase 1 [1] is 7.22; on Beta-secretase 2 it was 6.72; against Cathepsin D [6], 4.66. Further, the pEC50 on Beta-secretase 1 [3] is 6.38.

For `CCC(=O)c1cc(C2(c3cccc(-c4cccnc4F)c3)N=C(N)N(C)C2=O)cs1` (racemic), the Kp in data set [5] was 0.1. The pIC50 is 7.82 against Beta-secretase 1 [1], 7.15 against Beta-secretase 2 and 5.39 on Cathepsin D [6]. Also, on Beta-secretase 1 [3], the pEC50 was 7.52.

Consider `Cc1cc(C2(c3cccc(-c4cncnc4)c3)N=C(N)N(C)C2=O)cs1` (racemic), for which, in data set [5], the Kp is 0.1. The figures for the pIC50 on Beta-secretase 1 [1], against Beta-secretase 2 and against Cathepsin D [6] were 6.85, 6.11 and 4.52, respectively. For the same compound, the negative logarithm of the EC50 (pEC50) on Beta-secretase 1 [3] is 6.26.

Consider `Cc1cc(C2(c3cccc(-c4cncnc4)c3)N=C(N)N(C)C2=O)c(Cl)s1` (racemic), for which the Kp in data set [5] stood at 0.1. Also, the pIC50 was 6.33 on Beta-secretase 1 [1], 5.94 against Beta-secretase 2 and 4.50 against Cathepsin D [6]. In addition, at Beta-secretase 1 [3], the pEC50 was 5.65.

For the compound `Cc1sccc1C1(c2cccc(-c3cncnc3)c2)N=C(N)N(C)C1=O` (racemic), the Kp in data set [5] was 0.1. For the same compound, the figures for the pIC50 against Beta-secretase 1 [1], at Beta-secretase 2 and on Cathepsin D [6] were 6.43, 6.21 and 4.41, respectively. In addition, the pEC50 at Beta-secretase 1 [3] is 5.88.

Turning to `CN1C(=O)C(c2ccsc2)(c2ccc(F)c(-c3cccnc3F)c2)N=C1N` (racemic), the Kp in data set [5] came to 0.1. In addition, the pIC50 at Beta-secretase 1 [1] was 7.52; on Beta-secretase 2, 6.39; on Cathepsin D [6], 5.66. Further, at Beta-secretase 1 [3], the pEC50 was 6.70.

With `CCC(=O)c1cc(C2(c3cccc(-c4cncnc4)c3)N=C(N)N(C)C2=O)cs1` (racemic), in data set [5], the Kp came out at 0.1. The figures for the negative logarithm of the IC50 (pIC50) against Beta-secretase 1 [1], against Beta-secretase 2 and at Cathepsin D [6] were 7.82, 7.15 and 4.88, respectively. Further, on Beta-secretase 1 [3], the pEC50 was 7.15.
